# Test results: patent US20130337014A1 (priority 2008, published 2013)
# Test system: Clostridium perfringens
# Assay type: in vivo, broiler chickens (Cobb X Cobb)
# Conditions: CP challenged
structure (smiles),measurement,setting,value
"CC[C@@H](C(=O)[C@@H](C)[C@@H](O)[C@H](C)[C@@H]1O[C@@H]([C@@H](CC)C(=O)O)CC[C@@H]1C)[C@H]1O[C@]2(C=C[C@@H](O)[C@]3(CC[C@@](C)([C@H]4CC[C@](O)(CC)[C@H](C)O4)O3)O2)[C@H](C)C[C@@H]1C [S, salinomycin]",Necrotic Enteritis Lesion Score,"Day 22, 0 to 3 score",0.10
same,Average Weight Gain (kg) Days 0 to 21,Days 0 to 21,.592 kg
same,Feed Conversion Ratio (feed to gain ratio) Days 0 to 21,Days 0 to 21,1.550
same,Feed Conversion Ratio (feed to gain ratio) Days 0 to 42,Days 0 to 42,1.914
same,Mortality (%) All Causes Days 0 to 42,Days 0 to 42,4.67%
same,Mortality (%) Necrotic Enteritis Days 0 to 42,Days 0 to 42,1.33%
same,Feed Conversion Ratio (feed to gain ratio) Days 21 to 42,Days 21 to 42,2.126
